In ChEMBL document CHEMBL1909529, “Molecular dynamics simulations and MM/GBSA methods to investigate binding mechanisms of aminomethylpyrimidine inhibitors with DPP-IV” (Bioorg Med Chem Lett, 2011):

Molecular target: Dipeptidyl peptidase 4 (Homo sapiens, UniProt P27487)
Assay: Inhibition of DPP4

Chain of Dipeptidyl peptidase 4 (P27487 whole entry): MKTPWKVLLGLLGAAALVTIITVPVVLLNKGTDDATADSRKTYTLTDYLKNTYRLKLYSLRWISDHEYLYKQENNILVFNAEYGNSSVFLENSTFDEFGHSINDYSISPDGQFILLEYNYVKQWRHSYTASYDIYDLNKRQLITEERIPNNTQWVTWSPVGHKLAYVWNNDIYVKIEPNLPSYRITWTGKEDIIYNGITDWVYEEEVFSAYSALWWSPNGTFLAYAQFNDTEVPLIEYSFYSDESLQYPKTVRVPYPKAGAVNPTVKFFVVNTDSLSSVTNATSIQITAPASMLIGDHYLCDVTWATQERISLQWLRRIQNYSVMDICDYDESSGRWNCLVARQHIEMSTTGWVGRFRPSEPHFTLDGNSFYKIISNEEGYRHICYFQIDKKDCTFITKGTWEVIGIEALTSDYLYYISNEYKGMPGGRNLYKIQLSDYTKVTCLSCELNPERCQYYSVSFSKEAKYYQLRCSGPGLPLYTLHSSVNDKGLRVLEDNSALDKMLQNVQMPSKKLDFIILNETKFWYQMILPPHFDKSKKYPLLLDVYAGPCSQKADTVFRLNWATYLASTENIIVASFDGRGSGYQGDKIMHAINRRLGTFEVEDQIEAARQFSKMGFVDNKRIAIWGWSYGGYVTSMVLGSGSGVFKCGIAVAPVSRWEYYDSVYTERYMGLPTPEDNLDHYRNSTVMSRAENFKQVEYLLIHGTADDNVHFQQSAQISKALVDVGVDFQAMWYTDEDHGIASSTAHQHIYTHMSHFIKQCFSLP

NCc1c(N)nc(-c2cc(F)cc(F)c2)nc1-c1ccc(Cl)cc1Cl
IC50: 3 nM
